# According to patent US5624923A, “Tricyclic diazepine vasopressin antagonists and oxytocin antagonists” (priority 1995, dated 1997):
# Like-named read-outs stand apart in the source and are kept apart here.
# Tests used:
# [1] = biological target: T1, V1 Receptor Subtype in Human Platelet (Homo sapiens, UniProt P37288); experiment: Binding to Vasopressin V1 receptor subtype in Human Platelet Membranes; conditions: human platelet membranes
# T1 construct: tissue Hudson Valley Blood Services, Westchester Medical Center, Valhalla, N.Y; host or cells: human platelets (frozen platelet rich plasma)
# Description: Radioligand Binding Experiments with Human Platelet Membranes (a) Platelet Membrane Preparation: Frozen platelet rich plasma (PRP), (Platelet Source: Hudson Valley Blood Services, Westchester Medical Center, Valhalla, N.Y.) are thawed to room temperature. The tubes containing the PRP are centrifuged at 16,000×g for 10 min. at 4° C. and the supernatant fluid discarded. […] The suspension is recentrifuged at 16,000× g for 10 min. This washing step is repeated one more time. The wash discarded and the lysed pellets homogenized in low ionic strength buffer of Tris.HCl, 5.0 mM, pH 7.5 containing 5.0 mM EDTA. The homogenate is centrifuged at 39,000× g for 10 min. The resulting pellet is resuspended in Tris. […] The final pellet is resuspended in 50.0 mM Tris. HCl buffer pH 7.4 containing 120 mM NaCl and 5.0 mM KCl to give 1.0-2.0 mg protein per ml of suspension. […] Platelet Membranes […] Then add 20 μl of [^3 H]Ligand (Manning or […] Vasopressin), to give final concentrations ranging from 0.01 to 10.0 nM. Initiate the binding by adding 80.0 μl of platelet suspension (approx. 100 μg protein). Mix all reagents by pipetting the mixture up and down a few times. Non specific binding is measured in the presence of 1.0 μM of unlabeled ligand (Manning or […] Vasopressin). Let the mixture stand undisturbed at room temperature for ninety (90) min. Upon this time, rapidly filter off the incubate under vacuum suction over GF/B filters, using a Brandel Harvester. Determine the radioactivity caught on the filter disks by the addition of liquid scintillant and counting in a liquid scintillator.
# [2] = biological target: T2, Human V2 Vasopressin Receptor (Homo sapiens, UniProt P30518); experiment: Binding to Membranes of Mouse Fibroblast Cell Line (LV-2) Transfected with the cDNA Expressing the Human V2 Vasopressin Receptor
# T2 construct: expressed in transfected cells; host or cells: mouse fibroblast cell line LV-2
# Description: Binding to Membranes of Mouse Fibroblast Cell Line (LV-2) Transfected with the cDNA Expressing the Human V2 Vasopressin Receptor
# Flasks of 175 ml capacity, containing attached cells grown to confluence, are cleared of culture medium by aspiration. The flasks containing the attached cells are rinsed with 2×5 ml of phosphate buffered saline (PBS) and the liquid aspirated off each time. Finally, 5 ml of an enzyme free dissociation Hank's based solution (Specialty Media, Inc., Lafayette, N.J.) is added and the flasks are left undisturbed for 2 min. The content of all flasks is. poured into a centrifuge tube and the cells pelleted at 300× g for 15 min. The Hank's based solution is aspirated off and the cells homogenized with a polytron at setting #6 for 10 sec in 10.0 mM Tris.HCl buffer, pH 7.4 containing 0.25M sucrose and 1.0 mM EDTA. The homogenate is centrifuged at 1500× g for 10 min to remove ghost membranes. The supernatant fluid is centrifuged at 100,000× g for 60 min. to pellet the receptor protein. Upon completion, the pellet is resuspended in a small volume of 50.0 mM Tris. HCl buffer, pH 7.4. The protein content is determined by the Lowry method and the receptor membranes are suspended in 50.0 mM Tris.HCl buffer containing 0.1 mM phenylmethylsulfonylfluoride (PMSF) and 0.2% bovine serum albumin (BSA) to give 2.5 mg receptor protein per ml of suspension.
# Arginine^8, vasopressin (S.A. 75.0 Ci/mmole) at 0.8 nM and the reaction initiated by the addition of 80.0 μl of tissue membranes (200.0 μg tissue protein). The plates are left undisturbed on the bench top for 120 min to reach equilibrium. Non specific binding is assessed in the presence of 1.0 μM of unlabeled ligand, added in 20 μl volume. For test compounds, these are solubilized in 50% dimethylsulfoxide (DMSO) and added in 20.0 μl volume to a final incubation volume of 200 μl. Upon completion of binding, the content of each well is filtered off, using a Brandel® cell Harvester (Gaithersburg, Md.). The radioactivity trapped on the filter disk by the ligand-receptor complex is assessed by liquid scintillation counting in a Packard LS Counter, with an efficiency of 65% for tritium. The data are analyzed for IC50 values by the LUNDON-2 program for competition (LUNDON SOFTWARE, Ohio).
# [3] = biological target: T3, Rat Kidney Medullary V2 Receptors (Rattus norvegicus, UniProt Q00788); experiment: Binding Assay to Rat Kidney Medullary V2 Receptors; conditions: for IC50: rat kidney medulla membranes, read-out: V2 IC50
# T3 construct: Medullary tissues from rat kidneys are dissected out; from tissue; host or cells: rat kidney medulla membranes
# Method in brief: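 Membranes were prepared from rat kidney medulla and stored in 50.0 mM Tris-HCl pH 7.4 with 0.2% BSA and 0.1 mM PMSF. Radioligand competition ran 120 min at bench temperature, with 1.0 μM unlabeled ligand defining nonspecific binding. Compounds were added in 50% DMSO; filtration, tritium scintillation counting, IC50 from competition analysis.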
# oxytocin receptors = biological target: T4, oxytocin receptors (Rattus norvegicus, UniProt P70536); experiment: Oxytocin Receptor Binding; conditions: for inhibition at 10 µM: [3H]oxytocin
# T4 construct: The uteri are dissected out, cleaned of fat and connective tissues; from tissue; host or cells: uterus of DES-treated female Sprague-Dawley rats
# T4 sequence (P70536 1-388): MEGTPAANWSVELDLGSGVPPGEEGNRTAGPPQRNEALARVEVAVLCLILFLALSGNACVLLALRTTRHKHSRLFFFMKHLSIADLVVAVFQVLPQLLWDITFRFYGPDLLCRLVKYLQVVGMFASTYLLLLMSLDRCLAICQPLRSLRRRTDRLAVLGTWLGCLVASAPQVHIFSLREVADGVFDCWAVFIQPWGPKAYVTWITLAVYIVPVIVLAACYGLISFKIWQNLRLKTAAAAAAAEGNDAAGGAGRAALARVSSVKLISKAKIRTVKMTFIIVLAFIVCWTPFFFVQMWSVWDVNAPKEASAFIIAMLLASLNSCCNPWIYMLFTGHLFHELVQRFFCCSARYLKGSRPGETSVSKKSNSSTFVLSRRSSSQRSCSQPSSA
# Method in brief: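 Membranes from uteri of DES-primed (0.3 mg/kg i.m., 18 h) female Sprague-Dawley rats. Competition with 1.0 nM [3H]oxytocin in 50 mM Tris.HCl pH 7.4, 5 mM MgCl2 with protease inhibitors, 60 min at 22 °C, filtration read-out. Non-specific binding with 1.0 uM unlabeled OT; IC50 calculated.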
# Vasopressin V2 = Vasopressin V2 Antagonist Activity in Conscious Hydrated Rats; assay type: in vivo, rat; conditions: 10 mg/kg orally, AVP 0.4 μg/kg i.p.
# Method in brief: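 Four-hour urine output, osmolality and electrolytes (Na+, K+, Cl−) recorded in water-loaded rats (30 mL/kg deionized water orally) given AVP i.p. at 0.4 μg/kg. Test compounds were given orally at 0.1–100 mg/kg 1 h before AVP; 2–4 rats per compound.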
# Rat Hepatic V1 Receptors = biological target: T5, Rat Hepatic V1 Receptors (Rattus norvegicus, UniProt P30560); experiment: Binding Assay to Rat Hepatic V1 Receptors
# T5 construct: Rat liver plasma membranes expressing the vasopressin V1 receptor subtypes; from tissue; host or cells: rat liver plasma membranes
# [4] = LV-2 cell membranes, human V2, read-out: V2 IC50 (**)
# [5] = rat liver membranes, read-out: V1 IC50
# T5 sequence (P30560 whole entry): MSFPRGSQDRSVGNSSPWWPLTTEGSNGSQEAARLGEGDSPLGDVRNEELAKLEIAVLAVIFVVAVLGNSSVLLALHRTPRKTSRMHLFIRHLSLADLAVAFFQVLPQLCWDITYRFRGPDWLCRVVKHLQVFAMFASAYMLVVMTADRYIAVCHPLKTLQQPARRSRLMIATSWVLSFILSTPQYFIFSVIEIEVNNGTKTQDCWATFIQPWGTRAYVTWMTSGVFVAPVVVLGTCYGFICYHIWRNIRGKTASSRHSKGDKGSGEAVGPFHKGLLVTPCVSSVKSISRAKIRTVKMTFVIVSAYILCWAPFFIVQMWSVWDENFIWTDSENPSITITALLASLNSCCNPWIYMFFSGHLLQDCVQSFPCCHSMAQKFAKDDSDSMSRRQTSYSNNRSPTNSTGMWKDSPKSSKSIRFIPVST
# T2 sequence (P30518 whole entry): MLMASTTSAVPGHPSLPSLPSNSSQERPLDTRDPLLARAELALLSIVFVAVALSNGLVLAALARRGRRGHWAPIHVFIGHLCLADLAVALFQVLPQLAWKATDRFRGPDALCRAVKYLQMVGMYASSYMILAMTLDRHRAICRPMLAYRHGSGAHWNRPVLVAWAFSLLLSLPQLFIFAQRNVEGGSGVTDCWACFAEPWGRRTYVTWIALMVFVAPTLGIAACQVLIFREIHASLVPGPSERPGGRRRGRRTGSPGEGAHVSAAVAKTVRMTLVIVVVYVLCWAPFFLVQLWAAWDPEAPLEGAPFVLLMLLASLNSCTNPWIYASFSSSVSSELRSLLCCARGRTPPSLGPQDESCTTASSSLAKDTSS
# T1 sequence (P37288 whole entry): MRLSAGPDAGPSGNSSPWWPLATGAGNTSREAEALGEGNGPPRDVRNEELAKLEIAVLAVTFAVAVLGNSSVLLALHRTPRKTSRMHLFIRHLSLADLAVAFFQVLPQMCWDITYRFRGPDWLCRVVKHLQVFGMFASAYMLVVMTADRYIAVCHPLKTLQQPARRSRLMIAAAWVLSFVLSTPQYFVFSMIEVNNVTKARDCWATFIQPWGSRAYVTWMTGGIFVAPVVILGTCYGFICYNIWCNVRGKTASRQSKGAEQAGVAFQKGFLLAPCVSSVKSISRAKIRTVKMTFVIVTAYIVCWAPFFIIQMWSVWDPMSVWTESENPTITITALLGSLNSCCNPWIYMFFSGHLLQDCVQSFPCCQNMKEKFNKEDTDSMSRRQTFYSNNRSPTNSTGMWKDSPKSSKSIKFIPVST
# T3 sequence (Q00788 whole entry): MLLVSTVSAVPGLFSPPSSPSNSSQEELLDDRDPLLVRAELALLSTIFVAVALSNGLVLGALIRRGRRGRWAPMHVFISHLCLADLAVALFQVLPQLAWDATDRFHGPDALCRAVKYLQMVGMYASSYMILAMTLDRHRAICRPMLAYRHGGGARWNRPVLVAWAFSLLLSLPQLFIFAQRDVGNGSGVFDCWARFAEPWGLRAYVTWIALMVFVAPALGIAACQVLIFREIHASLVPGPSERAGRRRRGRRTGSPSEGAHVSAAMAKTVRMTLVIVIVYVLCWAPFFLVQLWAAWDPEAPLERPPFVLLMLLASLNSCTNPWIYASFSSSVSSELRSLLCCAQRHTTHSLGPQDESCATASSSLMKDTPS
IC50 [1],"IC50 [2, 4]",Structure (SMILES),also measured
12400 nM,65 nM,"O=C(Nc1ccc(C(=O)N2Cc3cccn3Cc3ccccc32)c(Cl)c1)c1ccc(C(F)(F)F)cc1F [Example 696, N-[4-(5H-pyrrolo[2,1-c][1,4]benzodiazepin-10(11H)-ylcarbonyl)-3-chloro-phenyl]-2-fluoro-4-(trifluoromethyl)benzamide]",–
72 nM,2.9 nM,"Cc1ccccc1C(=O)Nc1ccc(C(=O)N2Cc3cccn3Cc3ccccc32)c(C)c1 [Example 691, N-[4-(5H-pyrrolo[2,1-c][1,4]benzodiazepin-10(11H)-ylcarbonyl)-3-methylphenyl]-2-methylbenzamide]",–
21 nM,5 nM,"O=C(Nc1ccc(C(=O)N2Cc3cccn3Cc3ccccc32)cc1)c1ccc(F)cc1C(F)(F)F [Example 693, N-[4-(5H-pyrrolo[2,1-c][1,4]benzodiazepin-10(11H)-ylcarbonyl)phenyl]-2-(trifluoromethyl)-4-fluorobenzamide]",–
7.8 nM,73 nM,CCCCC(=O)Nc1ccc(C(=O)N2Cc3cccn3Cc3ccccc32)cc1 [Example 715],–
500 nM,4 nM,"Cc1c(F)cccc1C(=O)Nc1ccc(C(=O)N2CCc3cccn3-c3ccccc32)c(Cl)c1 [Example 611, N-[4-[(6,7-Dihydro-5H-pyrrolo[1,2-a]-[1,5]benzodiazepin-5-yl)carbonyl]-3-chlorophenyl]-3-fluoro-2-methyl-benzamide]",–
7 nM,4 nM,"O=C(Nc1ccc(C(=O)N2Cc3cccn3Cc3ccccc32)cc1)c1ccc(F)cc1Cl [Example 692, N-[4-(5H-pyrrolo[2,1-c][1,4]benzodiazepin-10(11H)-ylcarbonyl)phenyl]-2-chloro-4-fluorobenzamide]",–
1300 nM,13 nM,"O=C(Nc1ccc(C(=O)N2Cc3cccn3Cc3ccccc32)c(Cl)c1)c1c(F)cccc1C(F)(F)F [Example 698, N-[4-(5H-pyrrolo[2,1-c][1,4]benzodiazepin-10(11H)-ylcarbonyl)-3-chloro-phenyl]-2-fluoro-6-(trifluoromethyl)benzamide]",–
620 nM,3 nM,"Cc1ccccc1CC(=O)Nc1ccc(C(=O)N2Cc3cccn3Cc3ccccc32)c(Cl)c1 [Example 697, N-[4-(5H-pyrrolo[2,1-c][1,4]benzodiazepin-10(11H)-ylcarbonyl)-3-chloro-phenyl]-2-methylbenzeneacetamide]",–
23 nM,41 nM,CC(C)COC(=O)Nc1ccc(C(=O)N2Cc3cccn3Cc3ccccc32)cc1 [Example 714],–
340 nM,–,"Cc1ccc(C)c(C(=O)Nc2ccc(C(=O)N3Cc4cccn4Cc4ccccc43)c(Cl)c2)c1 [Example 701, N-[4-(5H-pyrrolo[2,1-c][1.4]benzodiazepin-10(11H)-ylcarbonyl)-3-chloro-phenyl]-2,5-dimethylbenzamide]","inhibition at 1 µM ([3]; 1 μM, rat): 100%"
220 nM,22 nM,"O=C(Nc1ccc(C(=O)N2Cc3cccn3Cc3ccccc32)cc1)c1cccc2ccccc12 [Example 690, N-[4-(5H-pyrrolo[2,1-c][1,4]benzodiazepin-10(11H)-ylcarbonyl)phenyl]-1-naphthylcarboxamide]",–
61 nM,61 nM,"O=Cc1cccn1CC(=O)Nc1ccc(C(=O)N2Cc3cccn3Cc3ccccc32)cc1 [Example 685, N-[4-(5H-Pyrrolo[2,1-c][1,4]benzodiazepin-10(11H)-ylcarbonyl)phenyl]-2-(2-formyl-1-pyrrolo)acetamide]",–
–,–,"CN(C)CCSC(C(=O)Nc1ccc(C(=O)N2Cc3cccn3Cc3ccccc32)cc1)c1ccccc1 (stereo not drawn) [Example 584, α-[[2-(Dimethylamino)ethyl]thio]-N-[4-(5H-pyrrolo[2,1-c][1,4]benzodiazepin-10(11H)-ylcarbonyl)phenyl]benzeneacetamide]",inhibition at 10 µM (oxytocin receptors): 26%; Osmolality (Vasopressin V2): 1718 mOsm/kg; Urine Volume (Vasopressin V2): 2.5 ml/4 hrs; IC50 [3]: 480 nM; IC50 (Rat Hepatic V1 Receptors; [5]): 1200 nM
–,–,"CN(C)C(C(=O)Nc1ccc(C(=O)N2Cc3cccn3Cc3ccccc32)cc1)c1ccccc1 (stereo not drawn) [Example 586, α-(Dimethylamino)-N-[4-(5H-pyrrolo[2,1-c][1,4]benzodiazepin-10(11H)-ylcarbonyl)phenyl]benzeneacetamide]",IC50 (oxytocin receptors; 1.0 nM [3H]oxytocin): 4700 nM; inhibition at 10 µM (oxytocin receptors): 61%; Osmolality (Vasopressin V2): 1196 mOsm/kg; Urine Volume (Vasopressin V2): 4.3 ml/4 hrs; IC50 [3]: 230 nM; IC50 (Rat Hepatic V1 Receptors; [5]): 450 nM
–,–,O=C(Nc1ccc(C(=O)N2Cc3ccc(C(=O)C(Cl)(Cl)Cl)n3Cc3ccccc32)cc1)c1ccccc1C(F)(F)F [Example 597],"inhibition at 10 µM (oxytocin receptors): 42%; Osmolality (Vasopressin V2): 1250 mOsm/kg; Urine Volume (Vasopressin V2): 5.3 ml/4 hrs; inhibition at 10 µM ([3]; 10 μM, rat): 97%; inhibition at 10 µM (Rat Hepatic V1 Receptors; 2 h, 10 μM, rat): 100%"
–,–,"Cc1ccc(F)cc1C(=O)Nc1ccc(C(=O)N2Cc3cccn3Cc3ccccc32)c(C)c1 [Example 694, N-[4-(5H-pyrrolo[2,1-c][1,4]benzodiazepin-10(11H)-ylcarbonyl)-3-methylphenyl]-5-fluoro-2-methylbenzamide]",IC50 (Rat Hepatic V1 Receptors): 120 nM; IC50 [2]: 1.7 nM

Structure (SMILES),IC50 [1],"IC50 [2, 4]",also measured
"CC(=O)Oc1ccccc1C(=O)Nc1ccc(C(=O)N2Cc3cccn3Cc3ccccc32)cc1 [Example 688, N-[4-(5H-pyrrolo[2,1-c][1,4]benzodiazepin-10(11H)-ylcarbonyl)phenyl]-2-(acetoxy)benzamide]",69 nM,34 nM,–
